PubChem BioAssay (NCI)
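48-hour exposure; five concentrations; linearly interpolated endpoints. TGI marks complete inhibition of growth.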

What was measured:
Experiment in all cases: NCI tumour cell line growth inhibition, 48 h
[1] = test system: MDA-MB-435
[2] = test system: K-562 leukemia
[3] = test system: COLO 205 colon
[4] = test system: EKVX NSCLC
[5] = test system: SF-295 CNS
[6] = test system: MALME-3M melanoma
[7] = test system: T-47D breast
[8] = test system: HS 578T breast
[9] = test system: HCT-116 colon
[10] = test system: DU-145 prostate
[11] = test system: SNB-75 CNS
[12] = test system: TK-10 renal
[13] = test system: NCI-H522 lung
[14] = test system: NCI-H460 lung
[15] = test system: UACC-62 melanoma
[16] = test system: SK-OV-3 ovarian
[17] = test system: UACC-257 melanoma
[18] = test system: NCI-H23 lung
[19] = test system: HCC-2998 colon
[20] = test system: SNB-19 CNS
[21] = test system: RPMI-8226 leukemia
[22] = test system: OVCAR-3 ovarian
[23] = test system: NCI/ADR-RES ovarian
[24] = test system: NCI-H226 lung
[25] = test system: LOX IMVI melanoma
[26] = test system: U251 CNS
[27] = test system: HCT-15 colon
[28] = test system: RXF 393 renal
[29] = test system: HOP-62 NSCLC
[30] = test system: MDA-N
[31] = test system: 786-0 renal
[32] = test system: SF-268 CNS
[33] = test system: SR leukemia
[34] = test system: IGROV1 ovarian
[35] = test system: PC-3 prostate
[36] = test system: MCF7 breast
[37] = test system: A498 renal
[38] = test system: SN12C renal
[39] = test system: SK-MEL-28 melanoma
[40] = test system: SK-MEL-2 melanoma
[41] = test system: OVCAR-8 ovarian
[42] = test system: CCRF-CEM leukemia
[43] = test system: A549 NSCLC
[44] = test system: HT29 colon
[45] = test system: BT-549 breast
[46] = test system: MOLT-4 leukemia
[47] = test system: MDA-MB-231 breast
[48] = test system: UO-31 renal
[49] = test system: M14 melanoma
[50] = test system: KM12 colon
[51] = test system: OVCAR-4 ovarian
[52] = test system: SK-MEL-5 melanoma
[53] = test system: OVCAR-5 ovarian
[54] = test system: ACHN renal
[55] = test system: SW-620 colon
[56] = test system: HL-60(TB) leukemia
[57] = test system: SF-539 CNS
[58] = test system: CAKI-1 renal
[59] = test system: HOP-92 NSCLC

Fc1cccc2nc(-c3ccccc3)cc(OCc3ccccc3)c12
TGI [1]: > 100 µM
TGI [2]: > 100 µM
TGI [3]: > 100 µM
TGI [4]: > 100 µM
TGI [5]: > 100 µM
TGI [6]: > 100 µM
TGI [7]: > 100 µM
TGI [8]: > 100 µM
TGI [9]: > 100 µM
TGI [10]: > 100 µM
TGI [11]: > 100 µM
TGI [12]: > 100 µM
TGI [13]: > 100 µM
TGI [14]: > 100 µM
TGI [15]: > 100 µM
TGI [16]: > 100 µM
TGI [17]: > 100 µM
TGI [18]: > 100 µM
TGI [19]: > 100 µM
TGI [20]: > 100 µM
TGI [21]: > 100 µM
TGI [22]: > 100 µM
TGI [23]: > 100 µM
TGI [24]: > 100 µM
TGI [25]: > 100 µM
TGI [26]: > 100 µM
TGI [27]: > 100 µM
TGI [28]: > 100 µM
TGI [29]: > 100 µM
TGI [30]: > 100 µM
TGI [31]: > 100 µM
TGI [32]: > 100 µM
TGI [33]: > 100 µM
TGI [34]: > 100 µM
TGI [35]: > 100 µM
TGI [36]: > 100 µM
TGI [37]: > 100 µM
TGI [38]: > 100 µM
TGI [39]: > 100 µM
TGI [40]: > 100 µM
TGI [41]: > 100 µM
TGI [42]: > 100 µM
TGI [43]: > 100 µM
TGI [44]: > 100 µM
TGI [45]: > 100 µM
TGI [46]: > 100 µM
TGI [47]: > 100 µM
TGI [48]: > 100 µM
TGI [49]: > 100 µM
TGI [50]: > 100 µM
TGI [51]: > 100 µM
TGI [52]: > 100 µM
TGI [53]: > 100 µM
TGI [54]: > 100 µM
TGI [55]: > 100 µM
TGI [56]: > 100 µM

CCOC(=O)/C(=C\c1ccc(CO)o1)P(=O)(OCC)OCC
TGI [1]: 86.9 µM
TGI [3]: 51 µM
TGI [4]: > 100 µM
TGI [5]: > 100 µM
TGI [6]: 50 µM
TGI [7]: > 100 µM
TGI [8]: > 100 µM
TGI [9]: 43.8 µM
TGI [10]: > 100 µM
TGI [11]: > 100 µM
TGI [12]: > 100 µM
TGI [13]: 15.4 µM
TGI [14]: 32.6 µM
TGI [15]: > 100 µM
TGI [16]: > 100 µM
TGI [17]: > 100 µM
TGI [18]: 57.8 µM
TGI [19]: > 100 µM
TGI [20]: > 100 µM
TGI [21]: 91.4 µM
TGI [22]: 59.9 µM
TGI [23]: > 100 µM
TGI [24]: > 100 µM
TGI [25]: 41.3 µM
TGI [26]: > 100 µM
TGI [27]: 33.2 µM
TGI [28]: 71.1 µM
TGI [57]: 40.3 µM
TGI [29]: > 100 µM
TGI [30]: 47.8 µM
TGI [31]: 45.3 µM
TGI [32]: 75.8 µM
TGI [33]: 71.6 µM
TGI [34]: > 100 µM
TGI [35]: > 100 µM
TGI [36]: > 100 µM
TGI [37]: > 100 µM
TGI [38]: 96.2 µM
TGI [58]: > 100 µM
TGI [39]: 82.3 µM
TGI [40]: 92.2 µM
TGI [43]: > 100 µM
TGI [44]: > 100 µM
TGI [45]: 45 µM
TGI [46]: > 100 µM
TGI [47]: 93.5 µM
TGI [49]: 98 µM
TGI [59]: 53.7 µM
TGI [50]: > 100 µM
TGI [51]: 35.9 µM
TGI [52]: > 100 µM
TGI [53]: > 100 µM
TGI [54]: > 100 µM
TGI [55]: 60.9 µM

CC1(C)C2CCC1C(=O)C(C=O)C2 (centres undefined)
TGI [1]: > 100 µM
TGI [2]: > 100 µM
TGI [3]: > 100 µM
TGI [5]: > 100 µM
TGI [6]: > 100 µM
TGI [7]: > 100 µM
TGI [8]: > 100 µM
TGI [9]: > 100 µM
TGI [10]: > 100 µM
TGI [11]: > 100 µM
TGI [12]: > 100 µM
TGI [13]: > 100 µM
TGI [14]: > 100 µM
TGI [15]: > 100 µM
TGI [16]: > 100 µM
TGI [17]: > 100 µM
TGI [18]: > 100 µM
TGI [19]: > 100 µM
TGI [20]: > 100 µM
TGI [21]: > 100 µM
TGI [22]: > 100 µM
TGI [23]: > 100 µM
TGI [24]: > 100 µM
TGI [25]: > 100 µM
TGI [26]: > 100 µM
TGI [27]: > 100 µM
TGI [28]: > 100 µM
TGI [57]: > 100 µM
TGI [29]: > 100 µM
TGI [30]: > 100 µM
TGI [31]: > 100 µM
TGI [32]: > 100 µM
TGI [33]: 79.6 µM
TGI [34]: > 100 µM
TGI [35]: > 100 µM
TGI [36]: > 100 µM
TGI [37]: > 100 µM
TGI [38]: > 100 µM
TGI [58]: > 100 µM
TGI [39]: > 100 µM
TGI [40]: > 100 µM
TGI [41]: > 100 µM
TGI [42]: > 100 µM
TGI [43]: > 100 µM
TGI [44]: > 100 µM
TGI [45]: > 100 µM
TGI [46]: > 100 µM
TGI [47]: > 100 µM
TGI [48]: > 100 µM
TGI [49]: > 100 µM
TGI [50]: > 100 µM
TGI [52]: > 100 µM
TGI [53]: > 100 µM
TGI [54]: > 100 µM
TGI [55]: > 100 µM
TGI [56]: > 100 µM

NC(N)=NNC(=O)C(=O)O
TGI [1]: > 100 µM
TGI [2]: > 100 µM
TGI [3]: > 100 µM
TGI [4]: > 100 µM
TGI [5]: > 100 µM
TGI [6]: > 100 µM
TGI [7]: > 100 µM
TGI [8]: > 100 µM
TGI [9]: > 100 µM
TGI [10]: > 100 µM
TGI [11]: > 100 µM
TGI [12]: > 100 µM
TGI [13]: > 100 µM
TGI [14]: > 100 µM
TGI [15]: > 100 µM
TGI [16]: > 100 µM
TGI [17]: > 100 µM
TGI [18]: > 100 µM
TGI [19]: > 100 µM
TGI [20]: > 100 µM
TGI [21]: > 100 µM
TGI [22]: > 100 µM
TGI [23]: > 100 µM
TGI [24]: > 100 µM
TGI [25]: > 100 µM
TGI [26]: > 100 µM
TGI [27]: > 100 µM
TGI [28]: > 100 µM
TGI [57]: > 100 µM
TGI [29]: > 100 µM
TGI [30]: > 100 µM
TGI [31]: > 100 µM
TGI [32]: > 100 µM
TGI [33]: > 100 µM
TGI [34]: > 100 µM
TGI [35]: > 100 µM
TGI [36]: > 100 µM
TGI [37]: > 100 µM
TGI [38]: > 100 µM
TGI [58]: > 100 µM
TGI [39]: > 100 µM
TGI [40]: > 100 µM
TGI [41]: > 100 µM
TGI [42]: > 100 µM
TGI [43]: > 100 µM
TGI [44]: > 100 µM
TGI [45]: > 100 µM
TGI [46]: > 100 µM
TGI [47]: > 100 µM
TGI [48]: > 100 µM
TGI [49]: > 100 µM
TGI [50]: > 100 µM
TGI [51]: > 100 µM
TGI [52]: > 100 µM
TGI [53]: > 100 µM
TGI [54]: > 100 µM
TGI [55]: > 100 µM
TGI [56]: > 100 µM
